Experimental data as given in US10457644B2, “Pyrazol compounds as EAAT3 inhibitors” (Hoffmann-La Roche Inc., priority 2016, dated 2019).

Assays:
human EAAT3 = target: T1, human EAAT3 (Homo sapiens, UniProt P43005); experiment: FLIPR Membrane Potential (FMP) assay; format: cell-based; settings: HEK-293 cells stably expressing human EAAT3; L-glutamate as agonist at 80% of maximum response; antagonist applied 15 min before; Kb by Cheng-Prusoff from IC50
T1 construct: expressed in transfected cells
T1 sequence (P43005 1-524): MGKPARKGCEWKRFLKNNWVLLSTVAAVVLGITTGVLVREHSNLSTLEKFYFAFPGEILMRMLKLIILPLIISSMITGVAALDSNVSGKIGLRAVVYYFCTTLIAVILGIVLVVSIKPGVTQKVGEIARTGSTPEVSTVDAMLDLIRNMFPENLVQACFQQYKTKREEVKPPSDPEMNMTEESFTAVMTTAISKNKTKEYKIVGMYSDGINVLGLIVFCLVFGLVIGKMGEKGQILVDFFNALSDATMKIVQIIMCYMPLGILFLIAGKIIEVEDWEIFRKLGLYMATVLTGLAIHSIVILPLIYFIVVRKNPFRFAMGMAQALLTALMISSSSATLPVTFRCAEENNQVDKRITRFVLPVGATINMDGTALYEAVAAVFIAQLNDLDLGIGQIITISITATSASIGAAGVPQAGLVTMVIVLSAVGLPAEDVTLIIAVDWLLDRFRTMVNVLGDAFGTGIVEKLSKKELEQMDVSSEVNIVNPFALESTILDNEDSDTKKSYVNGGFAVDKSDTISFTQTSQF
Protocol: The FLIPR Membrane Potential (FMP) Assay
HEK-293 cells stably expressing human EAAT3 were seeded at 55 000 cells/well in growth medium (DMEM glutamate free (Invitrogen 11960-044), 1% Pen Strep (10 ml/l GIBCO BRL N^o 15140-023), 10% FCS non dialysed heat inactivated, 5 mg/l puromycin) in poly-D-lysine treated 96-well black microtiter plates with clear-bottom. After 24 h, the growth medium was removed and 100 μl/well of Krebs buffer (140 mM NaCl, 4.7 mM KCl, 2.5 mM CaCl2, 1.2 mM MgCl2, 11 mM HEPES, 10 mM D-glucose, pH=7.4) added. The cells were then loaded by adding 100 μl/well FMP assay dye (FLIPR Membrane Potential assay reagent, Molecular Devices). The 96-well plates were then incubated at 37° C. for 1 h. The depolarization of the cells will cause more dye to enter in the cells, where it will bind to intracellular proteins and lipids and cause an increase in the fluorescence signal. Antagonist potency at human EAAT3 was determined by using L-glutamate as agonist at a concentration which gives 80% of the maximum response. The antagonists were applied 15 min before the application of the agonist L-glutamate. The assays were performed at room temperature and measurements done by using a Fluorometric Imaging Plate Reader (FLIPR, Molecular Devices) and filter #2. Responses were measured as peak increase in fluorescence minus basal (i.e. fluorescence without addition of L-glutamate). Kb was determined using the Cheng-Prusoff equation Kb=IC50/[1+(A/EC50)], where IC50 is the concentration of the antagonist producing 50% inhibition, A is the concentration of the agonist against which the IC50 is being determined ([…]) and EC50 is the concentration of the agonist producing […].

Row | SMILES | Kb (human EAAT3) [nM] | melting point [°C]
1 | Cc1ccc(-c2cc(C(=O)NC(C)(C)C)cc(-c3ccnn3C(C)(C)C)c2)cc1F [Example 29, N-tert-Butyl-3-(2-tert-butyl-pyrazol-3-yl)-5-(3-fluoro-4-methyl-phenyl)-benzamide] | 390 | 202
2 | CC(C)(C)NC(=O)c1cc(-c2ccc(F)c(Cl)c2)cc(-c2ccnn2C(C)(C)C)c1 [Example 32, N-tert-Butyl-3-(2-tert-butyl-pyrazol-3-yl)-5-(3-chloro-4-fluoro-phenyl)-benzamide] | 410 | 175
3 | CC(C)(C)NC(=O)c1cc(-c2ccc(F)cc2)cc(-c2ccnn2CC2CC2)c1 [Example 46, N-tert-Butyl-3-[2-(cyclopropylmethyl)-pyrazol-3-yl]-5-(4-fluorophenyl)-benzamide] | 280 | 188
4 | CCn1nccc1-c1cc(C(=O)NC(C)(C)C)cc(-c2ccc(C(F)(F)F)cc2)c1 [Example 48, N-tert-Butyl-3-(2-ethyl-pyrazol-3-yl)-5-[4-(trifluoromethyl)-phenyl]-benzamide] | 290 | 70
5 | CC(C)(C)n1nccc1-c1cc(C(=O)NC(C)(C)C(F)(F)F)cc(-c2ccc(Cl)cc2)c1 [Example 42, 3-(2-tert-Butylpyrazol-3-yl)-5-(4-chlorophenyl)-N-(1,1,1-trifluoro-2-methyl-propan-2-yl)-benzamide] | 890 | 81
6 | CC(C)(C)NC(=O)c1cc(-c2ccc(C#N)cc2)cc(-c2ccnn2C(C)(C)C)c1 [Example 38, N-tert-Butyl-3-(2-tert-butyl-pyrazol-3-yl)-5-(4-cyano-phenyl)-benzamide] | 240 | 201.5
7 | CC(C)(C)NC(=O)c1cc(-c2ccc(C(F)(F)F)cc2)cc(-c2ccnn2C(C)(C)C)c1 [Example 3, N-tert-Butyl-3-(2-tert-butyl-pyrazol-3-yl)-5-[4-(trifluoromethyl)-phenyl]-benzamide] | 280 | 205
8 | CC(C)(C)NC(=O)c1cc(-c2ccc(F)cc2)cc(-c2ccnn2C2CC2)c1 [Example 23, N-tert-Butyl-3-(2-cyclopropyl-pyrazol-3-yl)-5-(4-fluorophenyl)-benzamide] | 110 | 66
9 | COc1ccc(-c2cc(C(=O)NC(C)(C)C)cc(-c3ccnn3C(C)(C)C)c2)cc1 [Example 31, N-tert-Butyl-3-(2-tert-butyl-pyrazol-3-yl)-5-(4-methoxy-phenyl)-benzamide] | 250 | 173
10 | CC(C)(C)NC(=O)c1cc(-c2ccc(F)cc2)cc(-c2ccnn2C(C)(C)C)c1 [Example 2, N-tert-Butyl-3-(2-tert-butyl-pyrazol-3-yl)-5-(4-fluorophenyl)-benzamide] | 190 | 210
11 | CC(C)(C)NC(=O)c1cc(-c2ccc(Cl)cc2)cc(-c2ccnn2CC2CC2)c1 [Example 25, N-tert-Butyl-3-(4-chlorophenyl)-5-[2-(cyclopropyl-methyl)-pyrazol-3-yl]-benzamide] | 250 | 159

The next lines start with the values.

Row | Kb (human EAAT3) [nM] | melting point [°C] | SMILES
12 | 95 | 161 | CC(C)n1nccc1-c1cc(C(=O)NC(C)(C)C)cc(-c2ccc(F)cc2)c1 [Example 6, N-tert-Butyl-3-(4-fluorophenyl)-5-(2-propan-2-yl-pyrazol-3-yl)-benzamide]
13 | 180 | 81 | CC(C)n1nccc1-c1cc(C(=O)NC(C)(C)C)cc(-c2ccc(C(F)(F)F)cc2)c1 [Example 7, N-tert-Butyl-3-(2-propan-2-yl-pyrazol-3-yl)-5-[4-(trifluoromethyl)-phenyl]-benzamide]
14 | 390 | 82 | CC(C)n1nccc1-c1cc(C(=O)NC(C)(C)C)cc(-c2ccc(F)c(F)c2)c1 [Example 8, N-tert-Butyl-3-(3,4-difluorophenyl)-5-(2-propan-2-yl-pyrazol-3-yl)-benzamide]
15 | 1520 | 169 | CC(C)n1nccc1-c1cc(C(=O)NC(C)(C)C2CC2)cc(-c2ccc(Cl)cc2)c1 [Example 26, 3-(4-Chlorophenyl)-N-(2-cyclopropyl-propan-2-yl)-5-(2-propan-2-yl-pyrazol-3-yl)-benzamide]
16 | 320 | 209 | CC(C)(C)NC(=O)c1cc(-c2ccc(Cl)cc2)cc(-c2ccnn2C(C)(C)C)c1 [Example 4, N-tert-Butyl-3-(2-tert-butyl-pyrazol-3-yl)-5-(4-chlorophenyl)-benzamide]
17 | 370 | 119 | CC(C)(C#N)NC(=O)c1cc(-c2ccc(Cl)cc2)cc(-c2ccnn2C(C)(C)C)c1 [Example 22, 3-(2-tert-Butylpyrazol-3-yl)-5-(4-chlorophenyl)-N-(2-cyanopropan-2-yl)-benzamide]
18 | 320 | 96 | CC(C)n1nccc1-c1cc(C(=O)NC(C)(C)C#N)cc(-c2ccc(Cl)cc2)c1 [Example 21, 3-(4-Chlorophenyl)-N-(2-cyano-propan-2-yl)-5-(2-propan-2-yl-pyrazol-3-yl)-benzamide]
19 | 300 | 168 | CC(C)n1nccc1-c1cc(C(=O)NC(C)(C)C)cc(-c2ccccc2)c1 [Example 13, N-tert-Butyl-3-phenyl-5-(2-propan-2-yl-pyrazol-3-yl)-benzamide]
20 | 170 | 84 | CC(C)n1nccc1-c1cc(C(=O)NC(C)(C)C)cc(-c2ccc(Cl)cc2)c1 [Example 5, N-tert-Butyl-3-(4-chlorophenyl)-5-(2-propan-2-yl-pyrazol-3-yl)-benzamide]
21 | 330 | 94 | CC(C)n1nccc1-c1cc(C(=O)NC(C)(C)C)cc(-c2ccc(C#N)cc2)c1 [Example 17, N-tert-Butyl-3-(4-cyano-phenyl)-5-(2-propan-2-yl-pyrazol-3-yl)-benzamide]
22 | 360 | 81 | Cc1ccc(-c2cc(C(=O)NC(C)(C)C)cc(-c3ccnn3C(C)C)c2)cc1F [Example 20, N-tert-Butyl-3-(3-fluoro-4-methyl-phenyl)-5-(2-propan-2-yl-pyrazol-3-yl)-benzamide]
23 | 1280 | 155 | Cc1cc(-c2cc(C(=O)NC(C)(C)C)cc(-c3ccnn3C(C)C)c2)ccc1F [Example 15, N-tert-Butyl-3-(4-fluoro-3-methyl-phenyl)-5-(2-propan-2-yl-pyrazol-3-yl)-benzamide]
24 | 290 | 79 | COc1ccc(-c2cc(C(=O)NC(C)(C)C)cc(-c3ccnn3C(C)C)c2)cc1 [Example 11, N-tert-Butyl-3-(4-methoxyphenyl)-5-(2-propan-2-yl-pyrazol-3-yl)-benzamide]
25 | 260 | 83 | CC(C)(CO)NC(=O)c1cc(-c2ccc(Cl)cc2)cc(-c2ccnn2C(C)(C)C)c1 [Example 41, 3-(2-tert-Butyl-pyrazol-3-yl)-5-(4-chlorophenyl)-N-(1-hydroxy-2-methylpropan-2-yl)-benzamide]
26 | 260 | 72 | CC(C)(C)NC(=O)c1cc(-c2ccc(Cl)cc2)cc(-c2ccnn2C2CC2)c1 [Example 45, N-tert-Butyl-3-(4-chlorophenyl)-5-(2-cyclopropyl-pyrazol-3-yl)-benzamide]
